Measurements taken from PubChem BioAssay AID1918993 (Molecular Pharmacology Branch, DTP, NCI, 2023).

Tested on: 233499-124-R-J3-PDC complex spheroid growth
Test: Anticancer human tumor 233499-124-R-J3-PDC patient-derived colon adenocarcinoma cell line growth inhibition [AhR]
Details: for IC50: curve of first compound; for viability, T/C: stronger effect = lower value
Method in brief: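 Agents were dosed in half-log steps down from roughly clinical Cmax, or from 10 microM where Cmax was unknown, alone and with AhR antagonists. Read-out: percent test/control growth of tumor spheroids containing HUVEC and MSC stromal cells.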

[1] = second compound 0.1 µM, first compound 0.0316 µM
[2] = second compound 0.1 µM, first compound 0.1 µM
[3] = second compound 0.1 µM, first compound 0.316 µM
[4] = second compound 0.1 µM, first compound 1 µM
[5] = second compound 0.1 µM, first compound 3.16 µM
[6] = second compound 0.1 µM, first compound 10 µM
[7] = second compound 0.316 µM, first compound 0.0316 µM
[8] = second compound 0.316 µM, first compound 0.1 µM
[9] = second compound 0.316 µM, first compound 0.316 µM
[10] = second compound 0.316 µM, first compound 1 µM
[11] = second compound 0.316 µM, first compound 3.16 µM
[12] = second compound 0.316 µM, first compound 10 µM
[13] = second compound 1 µM, first compound 0.0316 µM
[14] = second compound 1 µM, first compound 0.1 µM
[15] = second compound 1 µM, first compound 0.316 µM
[16] = second compound 1 µM, first compound 1 µM
[17] = second compound 1 µM, first compound 3.16 µM
[18] = second compound 1 µM, first compound 10 µM
[19] = second compound 3.16 µM, first compound 0.0316 µM
[20] = second compound 3.16 µM, first compound 0.1 µM
[21] = second compound 3.16 µM, first compound 0.316 µM
[22] = second compound 3.16 µM, first compound 1 µM
[23] = second compound 3.16 µM, first compound 3.16 µM
[24] = second compound 3.16 µM, first compound 10 µM
[25] = second compound 10 µM, first compound 0.0316 µM
[26] = second compound 10 µM, first compound 0.1 µM
[27] = second compound 10 µM, first compound 0.316 µM
[28] = second compound 10 µM, first compound 1 µM
[29] = second compound 10 µM, first compound 3.16 µM
[30] = second compound 10 µM, first compound 10 µM
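Note: spheroids exposed to agents for seven days before reading.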

SMILES: CC(C)c1c(-c2ccccc2)nc2c(C#N)c[nH]n2c1=O + CC(CO)NC(=O)c1cc(-c2ccc(Cl)cc2)nn(-c2cnn(C)c2)c1=O
- IC50 (second compound 0.1 µM): > 10 µM
- IC50 (second compound 0.316 µM): > 10 µM
- IC50 (second compound 1 µM): > 10 µM
- IC50 (second compound 3.16 µM): > 10 µM
- IC50 (second compound 10 µM): > 10 µM
- viability, T/C [1]: 100%
- viability, T/C [2]: 97.7%
- viability, T/C [3]: 99.6%
- viability, T/C [4]: 101%
- viability, T/C [5]: 104%
- viability, T/C [6]: 105%
- viability, T/C [7]: 113%
- viability, T/C [8]: 109%
- viability, T/C [9]: 89.5%
- viability, T/C [10]: 93.7%
- viability, T/C [11]: 96.2%
- viability, T/C [12]: 102%
- viability, T/C [13]: 107%
- viability, T/C [14]: 106%
- viability, T/C [15]: 98%
- viability, T/C [16]: 102%
- viability, T/C [17]: 104%
- viability, T/C [18]: 100%
- viability, T/C [19]: 101%
- viability, T/C [20]: 95.3%
- viability, T/C [21]: 94.5%
- viability, T/C [22]: 96.8%
- viability, T/C [23]: 92.4%
- viability, T/C [24]: 87.8%
- viability, T/C [25]: 98.2%
- viability, T/C [26]: 82.5%
- viability, T/C [27]: 93.5%
- viability, T/C [28]: 86.3%
- viability, T/C [29]: 87.4%
- viability, T/C [30]: 96.6%

SMILES: COc1ccc([C@@H](O)c2cc(-c3ncnc4cc(N5CCOCC5)ccc34)c(F)cc2Cl)nn1 + CC(CO)NC(=O)c1cc(-c2ccc(Cl)cc2)nn(-c2cnn(C)c2)c1=O
- IC50 (second compound 0.1 µM): > 10 µM
- IC50 (second compound 0.316 µM): > 10 µM
- IC50 (second compound 1 µM): > 10 µM
- IC50 (second compound 3.16 µM): > 10 µM
- IC50 (second compound 10 µM): > 10 µM
- viability, T/C [1]: 104%
- viability, T/C [2]: 96%
- viability, T/C [3]: 88.8%
- viability, T/C [4]: 87%
- viability, T/C [5]: 92.8%
- viability, T/C [6]: 84.7%
- viability, T/C [7]: 108%
- viability, T/C [8]: 99.1%
- viability, T/C [9]: 89.7%
- viability, T/C [10]: 83%
- viability, T/C [11]: 75.6%
- viability, T/C [12]: 75.3%
- viability, T/C [13]: 96.2%
- viability, T/C [14]: 86.5%
- viability, T/C [15]: 76.8%
- viability, T/C [16]: 86.4%
- viability, T/C [17]: 73.9%
- viability, T/C [18]: 74.8%
- viability, T/C [19]: 98.3%
- viability, T/C [20]: 86.3%
- viability, T/C [21]: 84.7%
- viability, T/C [22]: 88.2%
- viability, T/C [23]: 69.5%
- viability, T/C [24]: 78.2%
- viability, T/C [25]: 90.9%
- viability, T/C [26]: 83.8%
- viability, T/C [27]: 66.8%
- viability, T/C [28]: 75.2%
- viability, T/C [29]: 77%
- viability, T/C [30]: 76.9%

SMILES: COc1cccc2c1C(=O)c1c(O)c3c(c(O)c1C2=O)CC(O)(C(=O)CO)CC3OC1CC(N)C(O)C(C)O1 (stereo not given) + Cc1ccccc1N=Nc1ccc(NC(=O)c2ccnn2C)c(C)c1
- IC50 (second compound 0.1 µM): > 10 µM
- IC50 (second compound 0.316 µM): 8.8 µM
- IC50 (second compound 1 µM): > 10 µM
- IC50 (second compound 3.16 µM): > 10 µM
- IC50 (second compound 10 µM): > 10 µM
- viability, T/C [1]: 87%
- viability, T/C [2]: 92.3%
- viability, T/C [3]: 102%
- viability, T/C [4]: 91.7%
- viability, T/C [5]: 83.3%
- viability, T/C [6]: 60.2%
- viability, T/C [7]: 80.4%
- viability, T/C [8]: 92.6%
- viability, T/C [9]: 95.9%
- viability, T/C [10]: 85.3%
- viability, T/C [11]: 72.2%
- viability, T/C [12]: 47.2%
- viability, T/C [13]: 97.2%
- viability, T/C [14]: 99%
- viability, T/C [15]: 102%
- viability, T/C [16]: 86.3%
- viability, T/C [17]: 81.6%
- viability, T/C [18]: 71.9%
- viability, T/C [19]: 88.3%
- viability, T/C [20]: 92.1%
- viability, T/C [21]: 97.7%
- viability, T/C [22]: 107%
- viability, T/C [23]: 86.8%
- viability, T/C [24]: 78%
- viability, T/C [25]: 95.2%
- viability, T/C [26]: 95.1%
- viability, T/C [27]: 94.4%
- viability, T/C [28]: 98.7%
- viability, T/C [29]: 96%
- viability, T/C [30]: 78.7%
